From PubChem BioAssay (NCI) come the findings set out here.

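All cell lines were grown in 96-well plates and treated with compound for 48 hours. GI50: concentration for 50% inhibition of growth. The concentration for full growth arrest is given as TGI.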 A value given as a limit tells only on which side of the number the result lay.

One test has as its system SW-620 colon. As to the kind of experiment: NCI tumour cell line growth inhibition, 48 h.
As to `CCn1c(-c2nonc2N)nc2cncc(C(=O)N3CCNCC3)c21`, the GI50 is over 25 µM and the TGI was over 25 µM.
Turning to `c1ccc2[nH]c(-c3ccc(N4CCN(c5ccc(-c6nc7ccccc7[nH]6)cc5)CC4)cc3)nc2c1`, the GI50 was 58 µM and the TGI is over 100 µM.
Consider `CCN(CC)CCOc1ccc(C(=C(C)c2ccc(Cl)cc2)c2ccc(OCCN(CC)CC)cc2)cc1`, for which the GI50 is 0.556 µM and the TGI was found to be 1.1 µM.
In the case of `C[C@]12CC[C@H]3[C@@H](CCC4=CC(=O)CC[C@@H]43)[C@@H]1CC[C@@H]2OC(=O)N(CCCl)N=O`, the GI50 was 1.75 µM and the TGI was found to be 26.7 µM.
With `CC12CCC(=O)C=C1CCC1C2CCC2(C)C(C(=O)Cn3cnc4c(=S)nc[nH]c43)CCC12` (stereo not given), the TGI is over 100 µM.
As for `CN(C)CCNC(=O)c1cccn2c(=O)c3cc4ccccc4cc3nc12`, the GI50 is 0.0515 µM and the TGI was 2.08 µM.
As to `COc1ccc(Cn2nc(-c3cc(OC)c(OC)c(OC)c3)c3c2CCc2cnoc2-3)cc1OC`, the GI50 was 3.98 µM and the TGI was over 100 µM.

The next test has as its system T-47D breast. The experiment in a line: NCI tumour cell line growth inhibition, 48 h.
As for `O=c1cc(CNc2cc(F)cc(F)c2)c2ccc(I)cc2[nH]1`, the GI50 is 1.01 µM and the TGI was over 100 µM.
Turning to `CC[C@](C)(O)C(=O)O[C@H]1C(=O)O[C@@H]2C[C@H]3C(C)=CC(=O)[C@@H](O)[C@]3(C)[C@H]3[C@@]4(O)OC[C@]32[C@@H]1[C@@H](C)[C@H]4O`, the TGI stood at 3.78 µM.
As to `NC(=O)[C@H]1CCN(c2ncnc(N)c2F)C[C@@H]1N1CCC[C@@H](Nc2cc(Cl)cc(C(F)(F)F)c2)C1=O`, the GI50 is 7.7 µM and the TGI was determined as 76 µM.
Take `CCN(CC)c1ccc(/C=C/c2cc(C)c3ccccc3n2)cc1`: the GI50 is 4.46 µM and the TGI is over 100 µM.
As to `O=C(CCl)c1ccc([N+](=O)[O-])o1`, the GI50 is 1.89 µM and the TGI turned out to be 4.78 µM.
In the case of `Nc1ncnc2c1ccn2C1OC2COP(=O)(O)OC2C1O` (stereo not given), the TGI is 55.3 µM.
Consider `Cc1cc(N2CCCCC2)nc(N(CCNc2ccnc3cc(Cl)ccc23)Cc2ccco2)n1`, for which the GI50 is 1.82 µM and the TGI was 4.32 µM.
`O=C(O)[C@@H]1C2CC([C@@H]1C(=O)O)[C@H](N1C(=O)CCC1=O)[C@@H]2Br` (stereo not given in full) had a TGI of over 100 µM.
`CCCN1C(=O)/C(=c2\sc3n(c2=O)C2C(NN=3)N(CC)C(=O)N2CC)c2ccccc21` (stereo not given): the GI50 is 0.438 µM and the TGI was over 88.7 µM.
Turning to `CCn1c(-c2nonc2N)nc2cncc(C(=O)N3CCNCC3)c21`, the GI50 was over 25 µM and the TGI was over 25 µM.
On to `c1ccc2[nH]c(-c3ccc(N4CCN(c5ccc(-c6nc7ccccc7[nH]6)cc5)CC4)cc3)nc2c1`, for which the GI50 is 30.4 µM and the TGI was over 100 µM.
`CCN(CC)CCOc1ccc(C(=C(C)c2ccc(Cl)cc2)c2ccc(OCCN(CC)CC)cc2)cc1`: the GI50 is 0.565 µM and the TGI was found to be 1.25 µM.
In the case of `C[C@]12CC[C@H]3[C@@H](CCC4=CC(=O)CC[C@@H]43)[C@@H]1CC[C@@H]2OC(=O)N(CCCl)N=O`, the GI50 is 3.52 µM and the TGI was 29.3 µM.
Consider `CC12CCC(=O)C=C1CCC1C2CCC2(C)C(C(=O)Cn3cnc4c(=S)nc[nH]c43)CCC12` (stereo not given), for which the TGI was over 100 µM.
As for `CN(C)CCNC(=O)c1cccn2c(=O)c3cc4ccccc4cc3nc12`, the GI50 was 0.417 µM and the TGI was 19 µM.
On to `COc1ccc(Cn2nc(-c3cc(OC)c(OC)c(OC)c3)c3c2CCc2cnoc2-3)cc1OC`, for which the GI50 was 4.16 µM and the TGI worked out at 39.9 µM.

A further test concerns MOLT-4 leukemia. As to the kind of experiment: NCI tumour cell line growth inhibition, 48 h.
For `O=c1cc(CNc2cc(F)cc(F)c2)c2ccc(I)cc2[nH]1`, the GI50 was 1.06 µM and the TGI was over 100 µM.
As for `CC[C@](C)(O)C(=O)O[C@H]1C(=O)O[C@@H]2C[C@H]3C(C)=CC(=O)[C@@H](O)[C@]3(C)[C@H]3[C@@]4(O)OC[C@]32[C@@H]1[C@@H](C)[C@H]4O`, the GI50 was 0.0366 µM.
As to `NC(=O)[C@H]1CCN(c2ncnc(N)c2F)C[C@@H]1N1CCC[C@@H](Nc2cc(Cl)cc(C(F)(F)F)c2)C1=O`, the GI50 was 4.93 µM and the TGI is 65.9 µM.
For the compound `CCN(CC)c1ccc(/C=C/c2cc(C)c3ccccc3n2)cc1`, the GI50 was 4.07 µM and the TGI was 43.1 µM.
`O=C(CCl)c1ccc([N+](=O)[O-])o1`: the GI50 was 1.15 µM.
For `Nc1ncnc2c1ccn2C1OC2COP(=O)(O)OC2C1O` (stereo not given), the TGI is 10.9 µM.
For `Cc1cc(N2CCCCC2)nc(N(CCNc2ccnc3cc(Cl)ccc23)Cc2ccco2)n1`, the GI50 is 2.29 µM and the TGI amounted to 5.31 µM.
Compound `O=C(O)[C@@H]1C2CC([C@@H]1C(=O)O)[C@H](N1C(=O)CCC1=O)[C@@H]2Br` (stereo not given in full) gave a TGI of over 100 µM.
In the case of `CCCN1C(=O)/C(=c2\sc3n(c2=O)C2C(NN=3)N(CC)C(=O)N2CC)c2ccccc21` (stereo not given), the GI50 was 0.811 µM and the TGI was over 100 µM.
Take `CCn1c(-c2nonc2N)nc2cncc(C(=O)N3CCNCC3)c21`: the GI50 was over 25 µM and the TGI is over 25 µM.
For `c1ccc2[nH]c(-c3ccc(N4CCN(c5ccc(-c6nc7ccccc7[nH]6)cc5)CC4)cc3)nc2c1`, the GI50 is 34.9 µM and the TGI is over 100 µM.
For `CCN(CC)CCOc1ccc(C(=C(C)c2ccc(Cl)cc2)c2ccc(OCCN(CC)CC)cc2)cc1`, the GI50 was 0.674 µM and the TGI was determined as 1.5 µM.
Consider `C[C@]12CC[C@H]3[C@@H](CCC4=CC(=O)CC[C@@H]43)[C@@H]1CC[C@@H]2OC(=O)N(CCCl)N=O`, for which the GI50 is 0.716 µM and the TGI is over 32.6 µM.
`CC12CCC(=O)C=C1CCC1C2CCC2(C)C(C(=O)Cn3cnc4c(=S)nc[nH]c43)CCC12` (stereo not given) registered a TGI of over 100 µM.
With `CN(C)CCNC(=O)c1cccn2c(=O)c3cc4ccccc4cc3nc12`, the GI50 is 0.0571 µM and the TGI worked out at 8.23 µM.
Take `COc1ccc(Cn2nc(-c3cc(OC)c(OC)c(OC)c3)c3c2CCc2cnoc2-3)cc1OC`: the GI50 was 3.76 µM and the TGI was over 100 µM.

In the next test the test system is SR leukemia. The experiment in a line: NCI tumour cell line growth inhibition, 48 h.
On to `O=c1cc(CNc2cc(F)cc(F)c2)c2ccc(I)cc2[nH]1`, for which the GI50 was 0.129 µM and the TGI is over 100 µM.
